From patent US20230322846A9, “NEUROACTIVE STEROIDS AND THEIR METHODS OF USE” (SAGE THERAPEUTICS, INC., priority 2018, published 2023)

Biological target: [35S]-TBPS binding, rat brain cortical membranes
Experiment: Steroid inhibition of [35S]-TBPS binding
Conditions: 3 nM [35S]-TBPS, in the presence of 5 mM GABA
Description: [^35S]-t-Butylbicyclophosphorothionate (TBPS) binding assays using rat brain cortical membranes in the presence of 5 mM GABA has been described (Gee et al, J. Pharmacol. Exp. Ther. 1987, 241, 346-353; Hawkinson et al, Mol. Pharmacol. 1994, 46, 977-985; Lewin, A. H et al., Mol. Pharmacol. 1989, 35, 189-194).
Briefly, cortices are rapidly removed following decapitation of carbon dioxide-anesthetized Sprague-Dawley rats (200-250 g). The cortices are homogenized in 10 volumes of ice-cold 0.32 M sucrose using a glass/teflon homogenizer and centrifuged at 1500×g for 10 min at 4° C. The resultant supernatants are centrifuged at 10,000×g for 20 min at 4° C. to obtain the P2 pellets. The P2 pellets are resuspended in 200 mM NaCl/50 mM Na—K phosphate pH 7.4 buffer and centrifuged at 10,000×g for 10 min at 4° C. This washing procedure is repeated twice and the pellets are resuspended in 10 volumes of buffer. Aliquots ([…]) of the membrane suspensions are incubated with 3 nM [^35S]-TBPS and […] aliquots of test drug dissolved in dimethyl sulfoxide (DMSO) (final 0.5%) in the presence of 5 mM GABA. The incubation is brought to a final volume of 1.0 mL with buffer. Nonspecific binding is determined in the presence of […] and ranged from 15 to 25%. Following a 90 min incubation at room temp, the assays are terminated by filtration through glass fiber filters (Schleicher and Schuell No. 32) using a cell harvester (Brandel) and rinsed three times with ice-cold buffer. Filter bound radioactivity is measured by liquid scintillation spectrometry. Non-linear curve fitting of the overall data for each drug averaged for each concentration is done using Prism (GraphPad). […] The concentration of test compound producing 50% inhibition (IC50) of specific binding and the maximal extent of inhibition (Imax) are determined for the individual experiments with the same model used for the overall data and then the means±SEM.s of the individual experiments are calculated.
Various compounds are or can be screened to determine their potential as modulators of [^35S]-TBPS binding in vitro. These assays are or can be performed in accordance with the above

First: C[C@@]1(O)CC[C@H]2[C@H](CC[C@@H]3[C@@H]2CC[C@]2(C)[C@@H](CN4CCCCC4=O)CC[C@@H]32)C1 [Example 1, 1-(((3R,5R,8R,9R,10S,13S,14S,17S)-3-hydroxy-3,13-dimethylhexadecahydro-1H-cyclopenta[a]phenanthren-17-yl)methyl)piperidin-2-one]
Second: CN(C[C@H]1CC[C@H]2[C@@H]3CC[C@@H]4C[C@](C)(O)CC[C@@H]4[C@H]3CC[C@]12C)C(=O)c1ccccc1 [Example 2, N-(((3R,5R,8R,9R,10S,13S,14S,17S)-3-hydroxy-3,13-dimethylhexadecahydro-1H-cyclopenta[a]phenanthren-17-yl)methyl)-N-methylbenzamide]
The IC50 of the first is higher: 1000 to 10000 nM for the first, 100 to 1000 nM for the second. The second is the more potent here.

First: COC[C@@]1(O)CC[C@H]2[C@H](CC[C@@H]3[C@@H]2CC[C@]2(C)[C@@H]([C@@H](C)NC(=O)c4ccc(F)cn4)CC[C@@H]32)C1 [Example 125]
Second: COC[C@@]1(O)CC[C@H]2[C@H](CC[C@@H]3[C@@H]2CC[C@]2(C)[C@@H]([C@H](C)NC(=O)c4ccc(F)cn4)CC[C@@H]32)C1 [Example 126]
The IC50 of the first is lower: 100 to 1000 nM for the first, 1000 to 10000 nM for the second. The first is the more potent here.

First: Cc1cc(C#N)ccc1N[C@@H](C)[C@H]1CC[C@H]2[C@@H]3CC[C@@H]4C[C@](C)(O)CC[C@@H]4[C@H]3CC[C@]12C [Example 251]
Second: C[C@H](NC(=O)c1ccc(C#N)cc1)[C@H]1CC[C@H]2[C@@H]3CC[C@@H]4C[C@](C)(O)CC[C@@H]4[C@H]3CC[C@]12C [Example 115]
The IC50 of the first is lower: 100 to 1000 nM for the first, 1000 to 10000 nM for the second.

Compared with `COc1ccc(C(=O)N[C@@H](C)[C@H]2CC[C@H]3[C@@H]4CC[C@@H]5C[C@](C)(O)CC[C@@H]5[C@H]4CC[C@]23C)cc1` [Example 107], `C[C@@H](NC(=O)c1ccccn1)[C@H]1CC[C@H]2[C@@H]3CC[C@@H]4C[C@](C)(O)CC[C@@H]4[C@H]3CC[C@]12C` [Example 100] is lower in IC50: 1000 to 10000 nM for the first, 100 to 1000 nM for the second. The second is the more potent here.

Compared with `C[C@@]1(O)CC[C@H]2[C@H](CC[C@@H]3[C@@H]2CC[C@]2(C)[C@@H](CNC(=O)Cc4ccccc4)CC[C@@H]32)C1` [Example 8, N-(((3R,5R,8R,9R,10S,13S,14S,17S)-3-hydroxy-3,13-dimethylhexadecahydro-1H-cyclopenta[a]phenanthren-17-yl)methyl)-2-phenylacetamide], `CC[C@H](NCc1ccccc1)[C@H]1CC[C@H]2[C@@H]3CC[C@@H]4C[C@@](O)(COC)CC[C@@H]4[C@H]3CC[C@]12C` [Example 213, (3R,5R,8R,9R,10S,13S,14S,17S)-17-((S)-1-(benzylamino)propyl)-3-(methoxymethyl)-13-methylhexadecahydro-1H-cyclopenta[a]phenanthren-3-ol] is higher in IC50: under 100 nM for the first, 1000 to 10000 nM for the second. The first is the more potent here.

`Cc1cnc(C[C@@H](C)[C@H]2CC[C@H]3[C@@H]4CC[C@@H]5C[C@](C)(O)CC[C@@H]5[C@H]4CC[C@]23C)cn1` [Example 440] and `C[C@H](Cc1ncc(CO)s1)[C@H]1CC[C@H]2[C@@H]3CC[C@@H]4C[C@](C)(O)CC[C@@H]4[C@H]3CC[C@]12C` [Example 429] cannot be ordered by IC50: under 100 nM for the first, under 100 nM for the second.

`CCOC[C@@]1(O)CC[C@@]2(C)[C@H](CC[C@@H]3[C@@H]2CC[C@]2(C)[C@@H]([C@@H](C)Cn4ccc(C#N)n4)CC[C@@H]32)C1` [Example 279, 1-((R)-2-((3R,5R,8R,9S,10S,13S,14S,17R)-3-(ethoxymethyl)-3-hydroxy-10,13-dimethylhexadecahydro-1H-cyclopenta[a]phenanthren-17-yl)propyl)-1H-pyrazole-3-carbonitrile] and `COC[C@@]1(O)CC[C@H]2[C@H](CC[C@@H]3[C@@H]2CC[C@]2(C)[C@@H]([C@H](C)Cn4ccc(C#N)n4)CC[C@@H]32)C1` [Example 35, 1-((S)-2-((3R,5R,8R,9R,10S,13S,14S,17R)-3-hydroxy-3-(methoxymethyl)-13-methylhexadecahydro-1H-cyclopenta[a]phenanthren-17-yl)propyl)-1H-pyrazole-3-carbonitrile] cannot be ordered by IC50: under 100 nM for the first, under 100 nM for the second.

First: CCOC[C@@]1(O)CC[C@H]2[C@H](CC[C@@H]3[C@@H]2CC[C@]2(C)[C@@H]([C@@H](C)n4cc(C#N)cn4)CC[C@@H]32)C1 [Example 162, 1-((R)-1-((3R,5R,8R,9R,10S,13S,14S,17S)-3-(ethoxymethyl)-3-hydroxy-13-methylhexadecahydro-1H-cyclopenta[a]phenanthren-17-yl)ethyl)-1H-pyrazole-4-carbonitrile]
Second: COC[C@@]1(O)CC[C@H]2[C@H](CC[C@@H]3[C@@H]2CC[C@]2(C)[C@@H]([C@H](C)n4cc(C#N)cn4)CC[C@@H]32)C1 [Example 151, 1-((S)-1-((3R,5R,8R,9R,10S,13S,14S,17S)-3-hydroxy-3-(methoxymethyl)-13-methylhexadecahydro-1H-cyclopenta[a]phenanthren-17-yl)ethyl)-1H-pyrazole-4-carbonitrile]
The IC50 of the first is lower: 100 to 1000 nM for the first, 1000 to 10000 nM for the second. The first is the more potent here.

`CCOC[C@@]1(O)CC[C@H]2[C@H](CC[C@@H]3[C@@H]2CC[C@]2(C)[C@@H]([C@@H](C)NS(=O)(=O)c4ccc(C#N)cc4)CC[C@@H]32)C1` [Example 67, 4-cyano-N—((R)-1-((3R,5R,8R,9R,10S,13S,14S,17S)-3-(ethoxymethyl)-3-hydroxy-13-methylhexadecahydro-1H-cyclopenta[a]phenanthren-17-yl)ethyl)benzenesulfonamide] and `CCOC[C@@]1(O)CC[C@H]2[C@H](CC[C@@H]3[C@@H]2CC[C@]2(C)[C@@H]([C@@H](C)N(C)S(=O)(=O)c4cccc(C#N)c4)CC[C@@H]32)C1` [Example 70] cannot be ordered by IC50: under 100 nM for the first, under 100 nM for the second.

Compared with `CCC[C@@]1(O)CC[C@H]2[C@H](CC[C@@H]3[C@@H]2CC[C@]2(C)[C@@H]([C@@H](C)Cn4cc(C#N)cn4)[C@H](O)C[C@@H]32)C1` [Example 362, 1-((R)-2-((3R,5R,8R,9R,10S,13S,14S,16R,17R)-3,16-dihydroxy-13-methyl-3-propylhexadecahydro-1H-cyclopenta[a]phenanthren-17-yl)propyl)-1H-pyrazole-4-carbonitrile], `C[C@H](Cn1cc(C#N)cn1)[C@H]1CC[C@H]2[C@@H]3CC[C@@H]4C[C@@](O)(C5CC5)CC[C@@H]4[C@H]3CC[C@]12C` [Example 342, 1-((S)-2-((3R,5R,8R,9R,10S,13S,14S,17R)-3-cyclopropyl-3-hydroxy-13-methylhexadecahydro-1H-cyclopenta[a]phenanthren-17-yl)propyl)-1H-pyrazole-4-carbonitrile] is lower in IC50: 1000 to 10000 nM for the first, 100 to 1000 nM for the second.

`CCC[C@@]1(O)CC[C@@]2(CC)[C@H](CC[C@H]3[C@@H]4CC[C@H]([C@@H](C)Cn5cc(C#N)cn5)[C@@]4(C)CC[C@@H]32)C1` [Example 301, 1-((R)-2-((3R,5R,8S,9S,10S,13S,14S,17R)-10-ethyl-3-hydroxy-13-methyl-3-propylhexadecahydro-1H-cyclopenta[a]phenanthren-17-yl)propyl)-1H-pyrazole-4-carbonitrile] and `CCC[C@@]1(O)CC[C@@]2(C)[C@H](CC[C@@H]3[C@@H]2CC[C@]2(C)[C@@H]([C@@H](C)Cn4nnc(C)n4)CC[C@@H]32)C1` [Example 313, (3R,5R,8R,9S,10S,13S,14S,17R)-10,13-dimethyl-17-((R)-1-(5-methyl-2H-tetrazol-2-yl)propan-2-yl)-3-propylhexadecahydro-1H-cyclopenta[a]phenanthren-3-ol] cannot be ordered by IC50: under 100 nM for the first, under 100 nM for the second.

First: CC[C@@]1(O)CC[C@H]2[C@@H](CC[C@@H]3[C@@H]2CC[C@]2(C)[C@@H]([C@@H](C)Cn4nnnc4C)CC[C@@H]32)C1 [Example 335, (3R,5S,8R,9R,10S,13S,14S,17R)-3-ethyl-13-methyl-17-((R)-1-(5-methyl-1H-tetrazol-1-yl)propan-2-yl)hexadecahydro-1H-cyclopenta[a]phenanthren-3-ol]
Second: CCOC[C@@]1(O)CC[C@H]2[C@H](CC[C@@H]3[C@@H]2CC[C@]2(C)[C@@H]([C@@H](C)Cn4ccnn4)CC[C@@H]32)C1 [Example 268, (3R,5R,8R,9R,10S,13S,14S,17R)-17-((R)-1-(1H-1,2,3-triazol-1-yl)propan-2-yl)-3-(ethoxymethyl)-13-methylhexadecahydro-1H-cyclopenta[a]phenanthren-3-ol]
The IC50 of the first is higher: 100 to 1000 nM for the first, under 100 nM for the second. The second is the more potent here.

In the case of `CCOC[C@@]1(O)CC[C@H]2[C@H](CC[C@@H]3[C@@H]2CC[C@]2(C)[C@@H]([C@H](C)Cc4ccc(C)nc4C#N)CC[C@@H]32)C1` [Example 415], the IC50 is reported as under 100 nM.
